# Measured values from ChEMBL document CHEMBL4359904, “Structural tuning of acridones for developing anticancer agents targeting dihydrofolate reductase” (Bioorg Med Chem Lett, 2019).
# pIC50: −log10 of the molar value. Activity calls are given as the source filed them. The rule behind the calls is not given here.
# What was measured:
# NCI-H23 = assay: Growth inhibition of human NCI-H23 cells incubated for 48 hrs by sulforhodamine B assay; assay type: functional; details: NCI-H23, 48 h; for CC50: read-out: pLC50 (the source's name) (converted); for TGI: read-out: pTGI (converted)
# NCI-H322M = assay: Growth inhibition of human NCI-H322M cells incubated for 48 hrs by sulforhodamine B assay; assay type: functional; details: for CC50: read-out: pLC50 (the source's name) (converted); for TGI: read-out: pTGI (converted)
# HT-29 = assay: Growth inhibition of human HT-29 cells incubated for 48 hrs by sulforhodamine B assay; assay type: functional; details: HT-29, 48 h; for CC50: read-out: pLC50 (the source's name) (converted); for TGI: read-out: pTGI (converted)
# U-251 = assay: Growth inhibition of human U251 cells incubated for 48 hrs by sulforhodamine B assay; assay type: functional; details: U-251, 48 h; for CC50: read-out: pLC50 (the source's name) (converted); for TGI: read-out: pTGI (converted)
# M14 = assay: Growth inhibition of human M14 cells incubated for 48 hrs by sulforhodamine B assay; assay type: functional; details: M14, 48 h; for CC50: read-out: pLC50 (the source's name) (converted); for TGI: read-out: pTGI (converted)
# SK-MEL-5 = assay: Growth inhibition of human SK-MEL-5 cells incubated for 48 hrs by sulforhodamine B assay; assay type: functional; details: SK-MEL-5, 48 h; for CC50: read-out: pLC50 (the source's name) (converted); for TGI: read-out: pTGI (converted)
# UACC-257 = assay: Growth inhibition of human UACC257 cells incubated for 48 hrs by sulforhodamine B assay; assay type: functional; details: UACC-257, 48 h; for CC50: read-out: pLC50 (the source's name) (converted); for TGI: read-out: pTGI (converted)
# OVCAR-3 = assay: Growth inhibition of human OVCAR3 cells incubated for 48 hrs by sulforhodamine B assay; assay type: functional; details: OVCAR-3, 48 h; for CC50: read-out: pLC50 (the source's name) (converted); for TGI: read-out: pTGI (converted)
# NCI/ADR-RES = assay: Growth inhibition of human NCI/ADR-RES cells incubated for 48 hrs by sulforhodamine B assay; assay type: functional; details: for CC50: read-out: pLC50 (the source's name) (converted); for TGI: read-out: pTGI (converted)
# 786-0 = assay: Growth inhibition of human 786-0 cells incubated for 48 hrs by sulforhodamine B assay; assay type: functional; details: 786-0, 48 h; for CC50: read-out: pLC50 (the source's name) (converted); for TGI: read-out: pTGI (converted)
# CAKI-1 = assay: Growth inhibition of human Caki1 cells incubated for 48 hrs by sulforhodamine B assay; assay type: functional; details: CAKI-1, 48 h; for CC50: read-out: pLC50 (the source's name) (converted); for TGI: read-out: pTGI (converted)
# RXF 393 = assay: Growth inhibition of human RXF393 cells incubated for 48 hrs by sulforhodamine B assay; assay type: functional; details: RXF 393, 48 h; for CC50: read-out: pLC50 (the source's name) (converted); for TGI: read-out: pTGI (converted)
# TK-10 = assay: Growth inhibition of human TK10 cells incubated for 48 hrs by sulforhodamine B assay; assay type: functional; details: TK-10, 48 h; for CC50: read-out: pLC50 (the source's name) (converted); for TGI: read-out: pTGI (converted)
# PC-3 = assay: Growth inhibition of human PC3 cells incubated for 48 hrs by sulforhodamine B assay; assay type: functional; details: PC-3, 48 h; for CC50: read-out: pLC50 (the source's name) (converted); for TGI: read-out: pTGI (converted)
# MCF7 = assay: Growth inhibition of human MCF7 cells incubated for 48 hrs by sulforhodamine B assay; assay type: functional; details: MCF7, 48 h; for TGI: read-out: pTGI (converted)
# MDA-MB-231 = assay: Growth inhibition of human MDA-MB-231/ATCC cells incubated for 48 hrs by sulforhodamine B assay; assay type: functional; details: MDA-MB-231, 48 h; for CC50: read-out: pLC50 (the source's name) (converted); for TGI: read-out: pTGI (converted)
# NCI-H460 = assay: Growth inhibition of human NCI-H460 cells at 10^-5 M cells incubated for 48 hrs by sulforhodamine B assay relative to control; assay type: functional
# MDA-MB-468 = assay: Growth inhibition of human MDA-MB-468 cells at 10^-5 M incubated for 48 hrs by sulforhodamine B assay relative to control; assay type: functional; details: MDA-MB-468, 48 h, read-out: GI
# [1] = tested on: Panel NCI-60 (60 carcinoma cell lines); assay: Therapeutic index, ratio of LC50 for human NCI60 cells to GI50 for human NCI60 cells measured after 48 hrs by sulforhodamine B assay; assay type: functional
# C6 [2] = assay: Antiproliferative activity against rat C6 cells assessed as decrease in cell viability measured after 48 hrs by MTT assay; assay type: functional, cell-based; details: for pIC50: C6, 48 h
# C6 [3] = assay: Cell cycle arrest in rat C6 cells assessed as decrease in cell population at S phase measured after 24 hrs by propidium iodide staining based flow cytometry analysis; assay type: functional
# Dihydrofolate reductase = target: T1, Dihydrofolate reductase (Homo sapiens, UniProt P00374); assay: Inhibition of human dihydrofolate reductase using dihydrofolic acid as substrate preincubated for 1 hr in presence of NADPH followed by substrate addition by enzyme immunoassay
# T1 sequence (P00374 whole entry): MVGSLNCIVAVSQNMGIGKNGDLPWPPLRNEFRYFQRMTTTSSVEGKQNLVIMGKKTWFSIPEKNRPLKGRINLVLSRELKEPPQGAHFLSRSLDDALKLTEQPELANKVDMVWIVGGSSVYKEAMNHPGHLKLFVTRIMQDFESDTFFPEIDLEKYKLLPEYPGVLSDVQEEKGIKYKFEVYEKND
# [4] = target: T2, Dihydrofolate reductase (Homo sapiens) (UniProt P00374); assay: Competitive inhibition of human dihydrofolate reductase at 30 uM using varying levels of dihydrofolic acid as substrate preincubated for 1 hr in presence of NADPH followed by substrate addition by Line weaver-Burk based double reciprocal plot analysis
# T2 sequence (whole entry): T1 sequence (P00374 whole entry)
# [5] = target: T2, Dihydrofolate reductase (Homo sapiens); assay: Inhibition of human dihydrofolate reductase assessed as association constant by UV-Vis spectra based Benesi Hilebrand equation analysis
# C6 [6] = assay: Induction of morphological changes in rat C6 cells assessed as apperance of differentiated morphology with fine and elongated processes after 24 hrs by inverted microscopy analysis; assay type: functional, cell-based
# C6 [7] = assay: Induction of morphological changes in rat C6 cells assessed as cellular senescence by measuring cell rounding with distorted morphology after 24 hrs by inverted microscopy analysis; assay type: functional, cell-based
# [8] = read-out: LC50 (the source's name)
# [9] = read-out: pLC50 (the source's name) (converted)
smiles,measurement,setting,value
O=C(OC[C@@H]1CO1)c1cccc2c(=O)c3ccccc3[nH]c12,GI50,NCI-H23,1410 nM
same,CC50,NCI-H23,> 100000 nM
same,TGI,NCI-H23,4470 nM
same,GI50,NCI-H322M,2190 nM
same,CC50,NCI-H322M,> 100000 nM
same,TGI,NCI-H322M,5890 nM
same,GI50,HT-29,2240 nM
same,CC50,HT-29,> 100000 nM
same,TGI,HT-29,7940 nM
same,GI50,U-251,1820 nM
same,CC50,U-251,50100 nM
same,TGI,U-251,7240 nM
same,GI50,M14,1660 nM
same,CC50,M14,9120 nM
same,TGI,M14,3890 nM
same,GI50,SK-MEL-5,1510 nM
same,CC50,SK-MEL-5,5500 nM
same,TGI,SK-MEL-5,2880 nM
same,GI50,UACC-257,2090 nM
same,CC50,UACC-257,9550 nM
same,TGI,UACC-257,4470 nM
same,GI50,OVCAR-3,2290 nM
same,CC50,OVCAR-3,51300 nM
same,TGI,OVCAR-3,7240 nM
same,GI50,NCI/ADR-RES,1700 nM
same,CC50,NCI/ADR-RES,> 100000 nM
same,TGI,NCI/ADR-RES,6310 nM
same,GI50,786-0,2750 nM
same,CC50,786-0,> 100000 nM
same,TGI,786-0,8130 nM
same,GI50,CAKI-1,1820 nM
same,CC50,CAKI-1,> 100000 nM
same,TGI,CAKI-1,8320 nM
same,GI50,RXF 393,1380 nM
same,CC50,RXF 393,5750 nM
same,TGI,RXF 393,2820 nM
same,GI50,TK-10,2340 nM
same,CC50,TK-10,> 100000 nM
same,TGI,TK-10,6760 nM
same,GI50,PC-3,2040 nM
same,CC50,PC-3,> 100000 nM
same,TGI,PC-3,8320 nM
same,GI50,MCF7; read-out: GI50,380 nM
same,CC50,MCF7; [8],> 100000 nM
same,GI50,MCF7; read-out: pGI50 (converted),389 nM
same,CC50,MCF7; [9],> 100000 nM
same,TGI,MCF7,2950 nM
same,GI50,MDA-MB-231,2090 nM
same,CC50,MDA-MB-231,> 100000 nM
same,TGI,MDA-MB-231,5250 nM
same,growth inhibition (GI),NCI-H460,100%
same,inhibition of growth at 10 µM,MDA-MB-468,100%
same,TI,[1],126
same,inhibition,C6 [2],Dose-dependent effect
same,pIC50,C6 [2],5.82 to 6.60
same,inhibition,C6 [3],Active
same,pIC50,Dihydrofolate reductase,8.00
same,inhibition,[4],Active
same,Ka,[5],1.6 ×10⁴ /M
same,Activity,C6 [6],Active
O=c1c2ccccc2n(CC2CO2)c2ccccc12 (racemic),GI50,NCI-H23,295 nM
same,CC50,NCI-H23,57500 nM
same,TGI,NCI-H23,1290 nM
same,GI50,NCI-H322M,2000 nM
same,CC50,NCI-H322M,> 100000 nM
same,TGI,NCI-H322M,7760 nM
same,GI50,HT-29,316 nM
same,CC50,HT-29,23400 nM
same,TGI,HT-29,871 nM
same,GI50,U-251,282 nM
same,CC50,U-251,> 100000 nM
same,TGI,U-251,1350 nM
same,GI50,M14,331 nM
same,CC50,M14,6170 nM
same,TGI,M14,1510 nM
same,GI50,SK-MEL-5,209 nM
same,CC50,SK-MEL-5,1120 nM
same,TGI,SK-MEL-5,468 nM
same,GI50,UACC-257,457 nM
same,CC50,UACC-257,> 100000 nM
same,TGI,UACC-257,2820 nM
same,GI50,OVCAR-3,288 nM
same,CC50,OVCAR-3,> 100000 nM
same,TGI,OVCAR-3,1510 nM
same,GI50,NCI/ADR-RES,257 nM
same,CC50,NCI/ADR-RES,> 100000 nM
same,TGI,NCI/ADR-RES,1100 nM
same,GI50,786-0,372 nM
same,CC50,786-0,> 100000 nM
same,TGI,786-0,5250 nM
same,GI50,CAKI-1,174 nM
same,CC50,CAKI-1,> 100000 nM
same,TGI,CAKI-1,692 nM
same,GI50,RXF 393,214 nM
same,CC50,RXF 393,2290 nM
same,TGI,RXF 393,513 nM
same,GI50,TK-10,479 nM
same,CC50,TK-10,> 100000 nM
same,TGI,TK-10,3090 nM
same,GI50,PC-3,331 nM
same,CC50,PC-3,> 100000 nM
same,TGI,PC-3,4790 nM
same,GI50,MCF7; read-out: GI50,50 nM
same,CC50,MCF7; [8],> 100000 nM
same,GI50,MCF7; read-out: pGI50 (converted),55 nM
same,CC50,MCF7; [9],> 100000 nM
same,TGI,MCF7,741 nM
same,GI50,MDA-MB-231,631 nM
same,CC50,MDA-MB-231,> 100000 nM
same,TGI,MDA-MB-231,3310 nM
same,growth inhibition (GI),NCI-H460,100%
same,inhibition of growth at 10 µM,MDA-MB-468,100%
same,TI,[1],28
same,inhibition,C6 [2],Dose-dependent effect
same,pIC50,C6 [2],5.82 to 6.60
same,pIC50,Dihydrofolate reductase,7.70
same,Ka,[5],1.4 ×10⁴ /M
same,Activity,C6 [7],Active
